Holding throughout (type): cell-based
Assay [1] concerns the target T1, Kv1.1 (Mus musculus, UniProt P16388).
T1 construct: expressed in transfected cells
As to the kind of experiment: Patch-clamp block of Kv1.1 channels stably expressed in L929 cells. The procedure: (§1) Kds were determined from the dose-response curves shown using Microcal Origin software.
On the technique in general: In patch-clamp work, channel activity is measured electrically.

In assay [2] the test system is Kv1.2. The assay is described as follows: Ion channel specificity panel: Kv1.2. The source says: (§2) Margatoxin, a peptide from scorpion venom that has been touted as a specific Kv1.3 inhibitor (Koo et al., 1997; Lin et al., 1993; Middleton et al., 2003) was also not specific.
Assay [3] concerns the target Kv1.5 (Homo sapiens, UniProt P22460). As to the kind of experiment: Ion channel specificity panel: Kv1.5.
Excerpt: as §2

In assay [4] the target is Kv3.2. As to the kind of experiment: Ion channel specificity panel: Kv3.2.
Excerpt: as §2

Assay [5] concerns the target Kv1.6 (Homo sapiens, UniProt P17658). The assay is described as follows: Ion channel specificity panel: Kv1.6.
Excerpt: as §2

Assay [6] concerns the target T2, Kv1.3 (Mus musculus, UniProt P16390).
T2 construct: expressed in transfected cells
The assay is described as follows: Patch-clamp block of Kv1.3 channels stably expressed in L929 cells. The note with it: cloned channel, dose-response curves. The procedure:
as §1

The target of assay [7] is Kv1.2 (UniProt P63142). The assay is described as follows: Ion channel specificity panel: Kv1.2. The settings on record: read-out: Kd on Kv1.2.
Excerpt: as §2

Positions of bridges follow the written chain, without caps; N, C: chain ends. Residues, ends and D or L forms follow the SMILES beside them. Bounds are passed on as bounds.

T1 sequence (P16388 whole entry): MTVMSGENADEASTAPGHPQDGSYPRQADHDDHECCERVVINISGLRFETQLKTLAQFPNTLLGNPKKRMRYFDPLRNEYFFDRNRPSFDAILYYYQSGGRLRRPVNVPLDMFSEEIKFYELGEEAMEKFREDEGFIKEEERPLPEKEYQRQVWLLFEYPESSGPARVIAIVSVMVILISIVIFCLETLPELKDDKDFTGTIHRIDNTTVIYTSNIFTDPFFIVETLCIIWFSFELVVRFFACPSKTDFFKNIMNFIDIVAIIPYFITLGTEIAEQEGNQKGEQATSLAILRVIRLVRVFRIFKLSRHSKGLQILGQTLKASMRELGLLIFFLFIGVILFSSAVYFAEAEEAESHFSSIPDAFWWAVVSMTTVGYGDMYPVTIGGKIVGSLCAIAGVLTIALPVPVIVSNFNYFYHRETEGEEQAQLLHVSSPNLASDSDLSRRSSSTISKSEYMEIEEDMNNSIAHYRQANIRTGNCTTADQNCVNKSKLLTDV
Kv1.6, sequence (P17658 whole entry): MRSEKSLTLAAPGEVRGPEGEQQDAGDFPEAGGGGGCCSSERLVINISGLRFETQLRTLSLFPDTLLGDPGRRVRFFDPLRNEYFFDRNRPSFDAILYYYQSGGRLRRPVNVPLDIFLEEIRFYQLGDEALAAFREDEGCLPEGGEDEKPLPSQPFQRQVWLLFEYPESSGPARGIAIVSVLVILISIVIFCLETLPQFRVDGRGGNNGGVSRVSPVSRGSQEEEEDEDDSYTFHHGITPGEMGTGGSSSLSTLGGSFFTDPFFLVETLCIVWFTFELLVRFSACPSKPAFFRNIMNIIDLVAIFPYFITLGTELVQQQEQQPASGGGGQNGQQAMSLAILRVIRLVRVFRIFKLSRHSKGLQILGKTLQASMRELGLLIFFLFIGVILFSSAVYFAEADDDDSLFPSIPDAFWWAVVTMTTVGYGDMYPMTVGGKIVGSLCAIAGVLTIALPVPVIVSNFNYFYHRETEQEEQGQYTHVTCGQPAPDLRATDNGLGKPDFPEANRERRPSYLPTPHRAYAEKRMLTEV
T2 sequence (P16390 whole entry): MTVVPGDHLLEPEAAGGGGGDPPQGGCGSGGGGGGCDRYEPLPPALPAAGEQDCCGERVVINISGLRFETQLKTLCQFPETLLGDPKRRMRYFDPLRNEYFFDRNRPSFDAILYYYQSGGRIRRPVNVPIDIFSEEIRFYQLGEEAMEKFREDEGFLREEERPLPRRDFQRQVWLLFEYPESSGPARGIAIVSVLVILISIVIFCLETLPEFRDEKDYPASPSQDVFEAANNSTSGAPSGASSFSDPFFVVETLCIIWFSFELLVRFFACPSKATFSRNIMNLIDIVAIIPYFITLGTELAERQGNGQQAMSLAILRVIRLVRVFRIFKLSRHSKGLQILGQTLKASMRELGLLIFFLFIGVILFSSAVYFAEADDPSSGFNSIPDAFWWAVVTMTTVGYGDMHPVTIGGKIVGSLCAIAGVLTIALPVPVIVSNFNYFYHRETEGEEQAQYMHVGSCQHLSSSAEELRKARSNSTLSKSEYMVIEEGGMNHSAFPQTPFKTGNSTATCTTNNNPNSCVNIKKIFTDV
Kv1.5, sequence (P22460 whole entry): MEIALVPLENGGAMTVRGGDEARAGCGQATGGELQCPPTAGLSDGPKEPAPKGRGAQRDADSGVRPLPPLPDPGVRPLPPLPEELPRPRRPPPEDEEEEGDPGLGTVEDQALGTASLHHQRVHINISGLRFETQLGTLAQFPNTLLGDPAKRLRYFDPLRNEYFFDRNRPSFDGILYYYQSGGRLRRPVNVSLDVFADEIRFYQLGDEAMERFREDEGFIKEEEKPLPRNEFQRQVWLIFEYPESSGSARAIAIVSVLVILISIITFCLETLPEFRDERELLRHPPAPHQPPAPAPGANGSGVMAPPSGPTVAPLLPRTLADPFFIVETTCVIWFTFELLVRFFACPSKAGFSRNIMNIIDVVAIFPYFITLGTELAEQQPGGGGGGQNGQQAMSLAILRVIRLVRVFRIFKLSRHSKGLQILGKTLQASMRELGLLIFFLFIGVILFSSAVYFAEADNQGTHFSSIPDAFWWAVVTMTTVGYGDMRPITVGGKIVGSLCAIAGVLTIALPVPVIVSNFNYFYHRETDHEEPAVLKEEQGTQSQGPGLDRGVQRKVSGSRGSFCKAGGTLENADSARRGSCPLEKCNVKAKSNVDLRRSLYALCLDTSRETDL

For the molecule `O=c1cc(-c2ccc(O)c(O)c2)oc2cc(O)cc(O)c12` [Luteolin], the “selectivity for Kv1.3 over Kv1.1” value in assay [1] is recorded as “no selectivity”. Further, the “selectivity for Kv1.3 over Kv1.2” value in assay [2] is given as “no selectivity”. For the same molecule, the “selectivity for Kv1.3 over Kv1.5” value in assay [3] is reported as “no selectivity”.

Regarding `CC[C@H](C)[C@H](NC(=O)[C@@H](N)[C@@H](C)O)C(=O)N[C@H](C(=O)N[C@@H](CC(N)=O)C(=O)N[C@H](C(=O)N[C@@H](CCCCN)C(=O)N[C@H]1CSSC[C@@H]2NC(=O)[C@H](CCCCN)NC(=O)[C@H](C)NC(=O)CNC(=O)[C@H](C)NC(=O)[C@H](CO)NC(=O)[C@H](CCC(N)=O)NC(=O)CNC(=O)[C@H](Cc3ccccc3)NC(=O)[C@H](CCC(N)=O)NC(=O)[C@H](C)NC(=O)[C@H](CCCCN)NC(=O)[C@@H]3CSSC[C@@H](C(=O)N[C@@H](Cc4ccc(O)cc4)C(=O)N4CCC[C@H]4C(=O)N[C@@H](Cc4c[nH]cn4)C(=O)O)NC(=O)[C@H](CCCCN)NC(=O)[C@H](CSSC[C@H](NC(=O)[C@H](CCC(N)=O)NC(=O)[C@H](CCCCN)NC(=O)[C@@H]4CCCN4C(=O)[C@H](CO)NC(=O)[C@H]([C@@H](C)O)NC1=O)C(=O)N[C@@H](CC(C)C)C(=O)N1CCC[C@H]1C(=O)N1CCC[C@H]1C(=O)N3)NC(=O)[C@H](CCCCN)NC(=O)CNC(=O)[C@H](CC(N)=O)NC(=O)[C@H](CCSC)NC2=O)C(C)C)[C@@H](C)CC` [Margatoxin] (H-TIINVKCTSPKQCLPPCKAQFGQSAGAKCMNGKCKCYPH-OH; disulfide 7-29, 13-34, 17-36; N-terminus and C-terminus assumed), the Kd in assay [4] is over 100 nM; in assay [1], 10 ± 1 nM; in assay [5], over 100 nM; in assay [6] it was 0.11 ± 0.012 nM; in assay [7] it was 0.52 ± 0.001 nM. In addition, the “selectivity for Kv1.3 over Kv3.2” value in assay [4] is over 1000 fold. In assay [1], the “selectivity for Kv1.3 over Kv1.1” value was 9 fold. Besides, the “selectivity for Kv1.3 over Kv1.6” value in assay [5] is over 1000 fold. Besides, the “selectivity for Kv1.3 over Kv1.2” value in assay [2] was determined as 5 fold.

One may read the Kd as the free concentration of one partner at which half of the binding sites on the other are occupied at equilibrium, for simple one-to-one binding.

Source of the values: patent US8080523B2 (The Regents of the University of California, priority 2004, dated 2011).
